From patent US9540361B2, “N-substituted azetidine derivatives” (Merck Sharp & Dohme B.V., priority 2010, dated 2017)
Where a name gives a salt, the structure may show the parent alone. Marks after values point to notes of the source that are not given here.

What was measured:
estrogen receptor alpha = molecular target: T1, estrogen receptor alpha (Homo sapiens, UniProt P03372); assay: ERα downregulation assay in T47D breast cancer cells (ERα ELISA); assay type: cell-based; conditions: downregulation of ERα relative to fulvestrant (100%), 1E-5 M, 24 hours, negative = upregulation
T1 construct: endogenous in cells; host or cells: T47D human breast cancer cells (ATCC)
T1 sequence (P03372 1-595): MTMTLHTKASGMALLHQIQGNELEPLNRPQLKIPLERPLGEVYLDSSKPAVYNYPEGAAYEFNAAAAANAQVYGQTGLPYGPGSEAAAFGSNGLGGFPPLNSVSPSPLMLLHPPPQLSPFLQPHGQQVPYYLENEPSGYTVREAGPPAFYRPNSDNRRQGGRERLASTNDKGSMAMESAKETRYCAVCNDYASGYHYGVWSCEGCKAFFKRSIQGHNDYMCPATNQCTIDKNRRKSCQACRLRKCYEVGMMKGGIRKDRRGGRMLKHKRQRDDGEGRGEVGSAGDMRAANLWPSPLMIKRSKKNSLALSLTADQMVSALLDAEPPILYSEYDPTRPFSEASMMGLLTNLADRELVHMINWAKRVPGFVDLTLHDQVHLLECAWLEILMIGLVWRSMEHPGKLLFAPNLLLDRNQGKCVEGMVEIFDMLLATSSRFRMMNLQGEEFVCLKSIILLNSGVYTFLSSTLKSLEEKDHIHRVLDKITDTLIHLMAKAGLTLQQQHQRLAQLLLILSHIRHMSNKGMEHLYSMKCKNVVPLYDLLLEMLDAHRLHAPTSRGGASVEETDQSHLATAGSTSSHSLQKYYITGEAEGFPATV
Text: More specifically, this in vitro bioassay is used to determine the efficacy (fraction of maximal response) of the compound by comparing the data for this compound with those of the reference compound ICI 182,780 (fulvestrant) in the same test (downregulation of fulvestrant is 100% by definition).
A more detailed description of the method used is as follows.
Cell culture. The human epithelial breast cancer cell line T47D (origin: ATCC) was routinely maintained in a 1:1 mixture of Ham's F12 medium and Dulbecco's Modified Eagle Medium (Gibco) enriched with 5% fetal calf serum (Hyclone), 10 mM HEPES pH 7.5 and 100 μg/ml penicillin-streptomycin solution. Cells were grown in 80 cm2 culture flasks (Nunc, Roskilde, Denmark) and kept in an atmosphere of 5% CO2-95% air at 37 degrees Celsius. Cells were subcultured when they reached about 80-90% confluence, resulting in one passage a week. Subculturing includes detaching the cells using Cell Dissociation Buffer [Sigma] and subsequent inoculation at 1:5 or 1:10 in a new Roux flask (175 cc) and\or plating out in Nunclon™ Surface 96 wells microplates. The culture medium needs to be refreshed on day three or four of the incubation, if applicable.
Determination of ERα protein levels: T47D cells in the microplates are incubated with 1E-5 M test compound for 24 hours. The supernatant in all wells is carefully aspirated. Cells are lysed on the microplate and cell lysates are probed for ERα content using an ERα ELISA assay kit (Active Motif).

[1] = molecular target: T2, human estrogen receptor α (hERα) (Homo sapiens, UniProt P03372); assay: antagonistic activity in CHO cells co-transfected with hERα, rat oxytocin promoter and luciferase reporter gene; assay type: cell-based; conditions: antagonism of 17β-estradiol-induced transactivation, CHO-hERα-RO-LUC; read-out: ERα pIC50 (converted)
T2 sequence (P03372 1-595): T1 sequence (P03372 1-595)
Experimental: The antagonistic activity of compounds on the estrogen receptors was determined in an in vitro bioassay with recombinant Chinese Hamster Ovary (CHO) cells stably co-transfected with the human estrogen receptor α (hERα), the rat oxytocin promoter (RO) and the luciferase reporter gene (LUC). […] The antagonistic efficacy, i.e. the amount of maximal inhibition of the 17β-estradiol activated receptor by a compound, is expressed as fraction relative to the maximal inhibition as induced by the standard anti-estrogen ICI 164,384 (efficacy test compound=(maximal inhibition test compound/maximal inhibition ICI 164,384)). A more detailed description of the methodology can be found in De Gooyer et al., Steroids, 68 (2003) 21-30.

Row | DR (%) (estrogen receptor alpha) | IC50 [1] [nM] | Compound
1 | 63% | 7.94 | CCCN1CC(Oc2ccc(C(=C(Cl)c3ccccc3)c3ccccc3)cc2)C1 (mixture of isomers) [compound 6x, (E/Z)-3-(4-(2-chloro-1,2-diphenylvinyl)phenoxy)-1-propylazetidine 2,2,2-trifluoroacetate]
2 | −5 ^(d) % | 0.501 | CCCN1CC(Oc2ccc(C(=C(CC)c3ccccc3)c3ccc(O)cc3)cc2)C1 (mixture of isomers) [compound 6v, (E/Z)-4-(2-phenyl-1-(4-(1-propylazetidin-3-yloxy)phenyl)but-1-enyl)phenol 2,-2,2-trifluoroacetate]
3 | 62% | 3.98 | CCCN1CC(Oc2ccc(C(=O)c3c(-c4ccc(O)cc4)noc3-c3ccccc3Cl)cc2)C1 [compound 6n, (5-(2-chlorophenyl)-3-(4-hydroxyphenyl)isoxazol-4-yl)(4-(1-propylazetidin-3-yloxy)phenyl)methanone]
4 | 100% | 3.16 | CCCN1CC(Oc2ccc(C(=O)c3c(-c4ccccc4C)noc3-c3ccc(O)cc3)cc2)C1.Cl [compound 7aj, (5-(4-hydroxyphenyl)-3-o-tolylisoxazol-4-yl)(4-(1-propylazetidin-3-yloxy)-phenyl)methanone hydrochloride]
5 | 100% | 7.94 | CCCN1CC(Oc2ccc(C(=O)c3c(-c4cccn4C)noc3-c3ccc(O)cc3)cc2)C1.Cl [7al, (5-(4-hydroxyphenyl)-3-(1-methyl-1H-pyrrol-2-yl)isoxazol-4-yl)(4-(1-propylazetidin-3-yloxy)phenyl)methanone hydrochloride]
6 | 46% | 3.98 | CCN1CC(Oc2ccc(C(=O)c3c(-c4ccc(O)cc4)sc4cc(O)ccc34)cc2)C1.O=C(O)C(F)(F)F [compound 7g, (4-(1-ethylazetidin-3-yloxy)phenyl)(6-hydroxy-2-(4-hydroxyphenyl)benzo[b]-thiophen-3-yl)methanone 2,2,2-trifluoroacetate]
7 | 90% | 2 | CCCN1CC(Oc2ccc(C(=O)c3c(-c4ccccc4Cl)noc3-c3cccc(O)c3)cc2)C1.Cl [compound 7ap, (3-(2-chlorophenyl)-5-(3-hydroxyphenyl)isoxazol-4-yl)(4-(1-propylazetidin-3-yloxy)phenyl)methanone hydrochloride]
8 | 33% | 0.794 | C=C(c1ccc(OC2CN(CCC)C2)cc1)c1c(-c2ccccc2Cl)noc1-c1ccc(O)cc1 [compound 7ax, 4-(3-(2-chlorophenyl)-4-(1-(4-(1-propylazetidin-3-yloxy)phenyl)vinyl)isoxazol-5-yl)phenol]
9 | 94% | 2 | CCCN1CC(Oc2ccc(C(=O)c3c(-c4ccc(O)c(C)c4)sc4cc(O)ccc34)cc2)C1.Cl [compound 7r, (6-hydroxy-2-(4-hydroxy-3-methylphenyl)benzo[b]thiophen-3-yl)(4-(1-propylazetidin-3-yloxy)phenyl)methanone hydrochloride]
10 | 33% | 63.1 | CCCN1CC(Oc2ccc(Cc3c(-c4ccccc4)c(=O)oc4cc(OC)ccc34)cc2)C1 [compound 7bf, 7-methoxy-3-phenyl-4-(4-(1-propylazetidin-3-yloxy)benzyl)-2H-chromen-2-one]
11 | – | 0.631 | CCCN1CC(Oc2ccc(-c3c(-c4ccccc4Cl)noc3-c3ccc(O)c(C)c3)cc2)C1 [compound 6l, 4-(3-(2-chlorophenyl)-4-(4-(1-propylazetidin-3-yloxy)phenyl)isoxazol-5-yl)-2-methylphenol 2,2,2-trifluoroacetate]
12 | – | 1.58 | CCCN1CC(Oc2ccc(Cc3c(-c4ccccc4)c(=O)oc4cc(O)ccc34)cc2)C1 [compound 6r, 7-hydroxy-3-phenyl-4-(4-(1-propylazetidin-3-yloxy)benzyl)-2H-chromen-2-one 2,2,2-trifluoroacetate]
13 | – | 15.8 | Oc1ccc(-c2onc(-c3ccccc3Cl)c2-c2ccc(OC3CNC3)cc2)cc1 [compound 6f, 4-(4-(4-(azetidin-3-yloxy)phenyl)-3-(2-chlorophenyl)isoxazol-5-yl)phenol]
14 | 64% | 1.26 | CCCN1CC(Oc2ccc(C(=O)c3c(-c4ccc(O)cc4C)sc4cc(O)ccc34)cc2)C1.Cl [compound 7q, (6-hydroxy-2-(4-hydroxy-2-methylphenyl)benzo[b]thiophen-3-yl)(4-(1-propylazetidin-3-yloxy)phenyl)methanone hydrochloride]
15 | – | 3.16 | C[C@]12C[C@H](c3ccc(OC4CN(CC5CC5)C4)cc3)C3c4ccc(O)cc4CC[C@H]3[C@@H]1CC[C@@H]2O (stereo partly drawn) [compound 6t, (8S,11S,13S,14S,17S)-11-(4-(1-(cyclopropylmethyl)azetidin-3-yloxy)phenyl)-13-methyl-7,8,9,10,11,12,13,14,15,16,17-decahydro-6H-cyclopenta[a]phenanthrene-3,17-diol]
16 | – | 0.631 | CCCCN1CC(Oc2ccc(-c3c(-c4ccccc4Cl)noc3-c3ccc(O)cc3)cc2)C1 [compound 6h, 4-(4-(4-(1-butylazetidin-3-yloxy)phenyl)-3-(2-chlorophenyl)isoxazol-5-yl)-phenol hydrochloride]
17 | 57% | 2 | COCCCN1CC(Oc2ccc(C(=O)c3c(-c4ccc(O)cc4)sc4cc(O)ccc34)cc2)C1.O=C(O)C(F)(F)F [compound 7k, (6-hydroxy-2-(4-hydroxyphenyl)benzo[b]thiophen-3-yl)(4-(1-(3-methoxypropyl)azetidin-3-yloxy)phenyl)methanone 2,2,2-trifluoroacetate]
18 | – | 0.794 | CN1CC(Oc2ccc(-c3c(-c4ccc(O)cc4)sc4cc(O)ccc34)cc2)C1 [compound 6a, 2-(4-hydroxyphenyl)-3-(4-(1-methylazetidin-3-yloxy)phenyl)benzo[b]thiophen-6-ol 2,2,2-trifluoroacetate]
19 | – | 0.501 | CCCN1CC(Oc2ccc(-c3c(-c4ccccc4Cl)noc3-c3ccc(O)cc3C)cc2)C1 [compound 6k, 4-(3-(2-chlorophenyl)-4-(4-(1-propylazetidin-3-yloxy)phenyl)isoxazol-5-yl)-3-methylphenol 2,2,2-trifluoroacetate]
20 | – | 2.51 | CCCN1CC(Oc2ccc([C@H]3C[C@]4(C)[C@@H](O)CC[C@H]4[C@@H]4CCc5cc(O)ccc5C34)cc2)C1 (stereo partly drawn) [compound 6s, (8S,11S,13S,14S,17S)-13-methyl-11-(4-(1-propylazetidin-3-yloxy)phenyl)-7,-8,9,10,11,12,13,14,15,16,17-decahydro-6H-cyclopenta[a]phenanthrene-3,17-diol]
21 | – | 0.398 | CCCN1CC(Oc2ccc(-c3c(-c4ccccc4C)noc3-c3ccc(O)cc3)cc2)C1 [compound 6j, 4-(4-(4-(1-propylazetidin-3-yloxy)phenyl)-3-o-tolylisoxazol-5-yl)phenol 2,2,2-trifluoroacetate]
22 | – | 1 | CCC(C)N1CC(Oc2ccc(-c3c(-c4ccccc4Cl)noc3-c3ccc(O)cc3)cc2)C1 (centres unmarked) [compound 6i, 4-(4-(4-(1-sec-butylazetidin-3-yloxy)phenyl)-3-(2-chlorophenyl)isoxazol-5-yl)-phenol hydrochloride]
23 | – | 1.58 | CC(C)N1CC(Oc2ccc(C(=O)c3c(-c4ccc(O)cc4)sc4cc(O)ccc34)cc2)C1 [compound 6e, (6-hydroxy-2-(4-hydroxyphenyl)benzo[b]thiophen-3-yl)(4-(1-isopropylazetidin-3-yloxy)phenyl)methanone hydrochloride]
